Test results as given in PMC6152678, “In Vitro Comparative Study of the Inhibitory Effects of Mangiferin and Its Aglycone Norathyriol towards UDP-Glucuronosyl Transferase (UGT) Isoforms” (Molecules : A Journal of Synthetic Chemistry and Natural …, 2017).

Assays:
UGT1A7 = target: T1, UGT1A7 (Homo sapiens, UniProt Q9HAW7); assay: Inhibition of recombinant UGT-catalyzed 4-MU glucuronidation; format: biochemical; settings: for inhibition at 30 min, 100 µM: human, pH 7.4, probe 4-methylumbelliferone (4-MU), 30 μM, 100 μM compound, 4-MU probe substrate, negative = activation
T1 construct: purchased BD Gentest Corp. (Woburn, MA, USA); host or cells: baculovirus-infected insect cells
T1 sequence (Q9HAW7 26-530): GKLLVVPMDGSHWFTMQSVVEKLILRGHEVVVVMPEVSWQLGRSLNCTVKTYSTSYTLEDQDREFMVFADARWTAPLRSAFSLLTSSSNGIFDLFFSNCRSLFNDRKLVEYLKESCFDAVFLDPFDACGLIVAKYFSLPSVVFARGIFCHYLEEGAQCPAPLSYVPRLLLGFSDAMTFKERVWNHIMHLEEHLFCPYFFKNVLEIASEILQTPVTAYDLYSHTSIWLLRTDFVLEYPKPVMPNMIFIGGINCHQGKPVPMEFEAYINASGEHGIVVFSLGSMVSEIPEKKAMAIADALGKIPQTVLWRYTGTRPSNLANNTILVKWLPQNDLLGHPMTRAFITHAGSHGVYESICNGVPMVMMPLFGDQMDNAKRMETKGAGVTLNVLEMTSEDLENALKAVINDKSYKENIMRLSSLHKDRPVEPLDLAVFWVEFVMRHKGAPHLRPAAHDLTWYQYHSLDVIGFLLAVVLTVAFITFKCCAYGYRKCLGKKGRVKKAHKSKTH
Procedure: (§1) Sigma-Aldrich (St Louis, MO, USA) provided the following constituents in the incubation mixture: 4-methylumbelliferone (4-MU), 4-methylumbelliferone-β-D-glucuronide (4-MUG), Tris-HCl, 7-hydroxycoumarin, and uridine-diphosphoglucuronic acid (UDPGA) (trisodium salt). All other compounds were of high-performance liquid chromatography (HPLC) grade or of the highest grade commercially available. For enzyme sources, recombinant UGT isoforms expressed in baculovirus-infected insect cells were purchased from BD Gentest Corp. (Woburn, MA, USA), including UGT1A1, 1A3, 1A6, 1A7, 1A8, 1A9, 1A10, 2B4, 2B7, 2B15, and 2B17.
(§2) 4-MU, a nonspecific probe substrate for all the UGT isoforms, was employed to investigate the inhibition of MEF and NIR towards the activity of UGT isoforms. The incubation and analytical methods have been previously described. […] MEF and NIR were dissolved in the DMSO to make a stock solution of 20 mM, and various concentrations of working solutions were prepared through dilution with DMSO. 4-MU was used as a non-selective substrate of UGTs. There was a 5-min pre-incubation step at 37 °C before the reaction was initiated by the addition of UDPGA. 4-MU and inhibitors were previously dissolved in DMSO, and the total concentration of DMSO was 1%. The reactions were continued at 37 °C for 120 min for UGT1A1, UGT1A3, UGT1A10, UGT2B4, UGT2B7, UGT2B15 and UGT2B17, 30 min for UGT1A6, UGT1A7, UGT1A8, and UGT1A9, respectively. Reactions were terminated by the addition of 100 μL acetonitrile with 7-hydroxycoumarin (100 μM) as internal standard. The incubation mixtures were then centrifuged at 12,000 r/min for 10 min. 2 μL supernatant was injected into the UPLC system for analysis. An ACQUITY UPLC System (Waters, Milford, MA, USA) equipped with UV detector was used to analyze the samples, and the separation of all the compounds were carried out using a ACQUITY UPLC® BEH C18 (2.1 × 100 mm, 1.7 μm Waters) at a flow rate of 0.2 mL/min and UV detector at 316 nm. The mobile phase was consisted of ultrapure water containing 0.5% formic acid (A) and acetonitrile (B). The following gradient condition was used: 0–3.5 min, 10–65% B; 3.5–4.0 min, 65% B; 4.0–9.0 min, 10% B. To calculate the standard curve 0.1–100 μM of 4-MUG was used through drawing the peak area ration of 4-MUG/internal standard towards the concentration range of 4-MUG. The curve was linear over this concentration range, with an r^2 value > 0.99.
(§3) The inhibition type and Kinetics were determined for the inhibition of NTR towards UGT1A3, UGT1A7 and UGT1A9. The glucuronidation velocity of 4-MU was determined at multiple concentrations of 4-MU and NTR. Dixon and Lineweaver–Burk plots were employed to determine the inhibition type, and the second plot of the slopes from the Lineweaver–Burk plot versus the compound concentrations was utilized to calculate the Ki value. The determination of IC50 was calculated using Probit analysis in SPSS11.5 (SPSS, Chicago, IL, USA). The Student’s t-test was adopted at a significance level of p < 0.05 to determine statistically significant differences among experimental groups.

UGT2B17 = target: T2, UGT2B17 (Homo sapiens, UniProt O75795); assay: as above; format: biochemical; settings: pH 7.4, probe 4-methylumbelliferone (4-MU), 2000 μM, 100 μM compound, 4-MU probe substrate, negative = activation
T2 construct: purchased BD Gentest Corp. (Woburn, MA, USA); host or cells: baculovirus-infected insect cells
T2 sequence (O75795 24-530): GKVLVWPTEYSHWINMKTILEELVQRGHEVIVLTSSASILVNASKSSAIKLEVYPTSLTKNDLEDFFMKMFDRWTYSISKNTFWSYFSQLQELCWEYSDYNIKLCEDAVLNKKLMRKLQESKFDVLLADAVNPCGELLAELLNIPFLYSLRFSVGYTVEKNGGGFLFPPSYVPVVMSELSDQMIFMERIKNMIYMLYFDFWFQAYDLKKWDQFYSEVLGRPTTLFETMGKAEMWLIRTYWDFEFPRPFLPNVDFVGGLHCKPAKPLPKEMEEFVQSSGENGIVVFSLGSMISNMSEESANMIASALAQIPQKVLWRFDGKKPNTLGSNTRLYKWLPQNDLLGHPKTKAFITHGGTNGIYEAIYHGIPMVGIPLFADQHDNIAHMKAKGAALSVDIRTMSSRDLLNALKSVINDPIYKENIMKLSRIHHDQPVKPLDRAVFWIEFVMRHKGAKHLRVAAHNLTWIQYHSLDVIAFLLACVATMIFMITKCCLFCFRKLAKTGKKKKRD
Procedure: as §1, §2, §3

| inhibition at 30 min, 100 µM (UGT1A7) [%] | inhibition at 120 min, 100 µM (UGT2B17) [%] | IC50 (UGT1A7; 4-MU glucuronidation, Probit analysis, read-out: IC50 towards UGT1A7) [µM] | inhibition type towards UGT1A7 (UGT1A7; Dixon plot and Lineweaver-Burk plot) | Ki (UGT1A7; second plot of Lineweaver-Burk slopes, read-out: inhibition constant (Ki) towards UGT1A7) [µM] | SMILES |
| --- | --- | --- | --- | --- | --- |
| 26.7 | -106 |  |  |  | O=c1c2cc(O)c(O)cc2oc2cc(O)c([C@@H]3O[C@H](CO)[C@@H](O)[C@H](O)[C@H]3O)c(O)c12 [MGF, 1,3,6,7-tetrahydroxyxanthone-C-2-β-D-glucoside] |
| 94.9 | 48.6 | 4.4 | competitively inhibited | 2 | O=c1c2cc(O)c(O)cc2oc2cc(O)cc(O)c12 [NTR, 1,3,6,7-tetrahydroxyxanthone] |
